What was measured:
N-domain of ACE = N-domain of ACE (Homo sapiens, UniProt P12821); test: ACE inhibitory activity, fluorometric determination of His-Leu, N-domain; type: biochemical; conditions: substrate Z-Phe-His-Leu; no inhibition up to 500 μM; read-out: Ki (N-dom) ZPHL
Protocol: (§1) The ACE inhibitory activity (as tabulated in Table 1) was measured by the fluorometric determination of pthaldialdehyde-derivatised histidylleucine, a product of the enzyme reaction according to the method of Almquist et al.,^12 with some modifications. For tACEdelta36NJ and N-domain inhibition using Z-Phe-His-Leu as substrate: —10 μL of 0.05 mg/mL enzyme+120 μL inhibitor at ambient temperature for 3 hours. Inhibitor concentrations ranged from 2.0 μM to 500 μM. A 3.0 μL aliquot of this was assayed for enzyme activity using 30 μL of 1.0 mM […]. This was incubated (in triplicate) for 30 mins at 37° C. and stopped with 180 μL solution of 0.28N NaOH. To this alkalized mixture 12 μL of o-pthaldialdehyde (150 mM) was added and the mixture incubated for another 10 mins at room temperature. Reactions were stopped by adding 26 μL solution of 3N HCl. Fluorescence was measured at Ex=360 nm; Em=486 nm, 5×5 slit width along with a His-Leu standard calibration curve fluorometer: Varian Cary Eclipse plate reader.
(§2) All assays included enzyme incubated with buffer in the absence of inhibitor (i.e. 0 μM inhibitor concentration).

tACEdelta36NJ = tACEdelta36NJ (Homo sapiens, UniProt P12821); test: ACE inhibitory activity, fluorometric determination of His-Leu, tACE; type: biochemical; conditions: for C domain-selectivity: C domain (tACE) versus N domain; for Ki: substrate Z-Phe-His-Leu, enzyme + inhibitor 3 hours at ambient temperature, read-out: Ki (tACE) ZPHL
Chain of tACEdelta36NJ (P12821 642-1230 limits assumed): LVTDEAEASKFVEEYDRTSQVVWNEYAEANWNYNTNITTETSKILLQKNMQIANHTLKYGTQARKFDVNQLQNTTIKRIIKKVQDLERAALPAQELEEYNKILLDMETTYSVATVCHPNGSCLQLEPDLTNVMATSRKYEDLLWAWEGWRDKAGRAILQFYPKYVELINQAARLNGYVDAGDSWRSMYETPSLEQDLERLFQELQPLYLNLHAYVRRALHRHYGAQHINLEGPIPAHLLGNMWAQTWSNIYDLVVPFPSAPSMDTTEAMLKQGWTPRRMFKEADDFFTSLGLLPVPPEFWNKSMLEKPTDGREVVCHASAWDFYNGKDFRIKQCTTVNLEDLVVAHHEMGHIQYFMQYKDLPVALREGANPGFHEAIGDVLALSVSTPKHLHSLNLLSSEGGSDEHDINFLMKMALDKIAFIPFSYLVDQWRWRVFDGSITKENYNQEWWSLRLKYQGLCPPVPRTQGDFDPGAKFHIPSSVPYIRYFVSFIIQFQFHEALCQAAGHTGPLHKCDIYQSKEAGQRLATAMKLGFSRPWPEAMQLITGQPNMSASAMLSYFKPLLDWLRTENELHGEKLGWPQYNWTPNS
Protocol: as §1, §2

ACE C-domain = conditions: C-domain versus N-domain of ACE; cited from earlier work

Chain of N-domain of ACE (P12821 40-624 limits assumed): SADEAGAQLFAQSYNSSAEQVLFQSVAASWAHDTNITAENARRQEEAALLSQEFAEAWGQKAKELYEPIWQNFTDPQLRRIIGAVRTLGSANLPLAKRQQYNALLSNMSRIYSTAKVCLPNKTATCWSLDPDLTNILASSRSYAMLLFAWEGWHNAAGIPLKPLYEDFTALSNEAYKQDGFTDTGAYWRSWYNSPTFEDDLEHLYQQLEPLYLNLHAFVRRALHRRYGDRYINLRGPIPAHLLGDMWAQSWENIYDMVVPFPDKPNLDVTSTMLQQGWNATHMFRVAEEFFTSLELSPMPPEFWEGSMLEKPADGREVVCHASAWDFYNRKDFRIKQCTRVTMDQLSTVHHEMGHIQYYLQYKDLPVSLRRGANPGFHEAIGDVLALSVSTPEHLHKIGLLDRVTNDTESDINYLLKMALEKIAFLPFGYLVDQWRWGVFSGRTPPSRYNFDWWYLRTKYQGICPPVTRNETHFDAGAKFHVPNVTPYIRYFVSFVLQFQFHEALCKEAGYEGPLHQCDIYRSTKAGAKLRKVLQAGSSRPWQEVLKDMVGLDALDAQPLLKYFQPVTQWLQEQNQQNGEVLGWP

NCCCC[C@H](N[C@H](CCc1ccccc1)C(=O)O)C(=O)N[C@@H](Cc1c[nH]c2ccccc12)C(=O)O [Compound 6a]
Ki (N-domain of ACE): > 500 µM | C domain-selectivity (tACEdelta36NJ): > 72 fold | Ki (tACEdelta36NJ): 7 µM

O=C(N[C@@H](Cc1ccccc1)P(=O)(O)C1CCCC1C(=O)N[C@@H](Cc1c[nH]c2ccccc12)C(=O)O)OCc1ccccc1 (stereo partly shown) [RXP A380]
C-domain selective (ACE C-domain): ~3000 fold

NCCCC[C@H](N[C@@H](CCc1ccccc1)C(=O)O)C(=O)N[C@@H](Cc1c[nH]c2ccccc12)C(=O)O [Compound 6]
Ki (N-domain of ACE): > 500 µM | C domain-selectivity (tACEdelta36NJ): > 19 fold | Ki (tACEdelta36NJ): 26.3 µM

— patent US7981922B2, “Angiotensin I-converting enzyme (ACE) inhibitors” (University of Cape Town, priority 2005, dated 2011)
